From patent publication US7943644B2, “Stabilization of iodine-containing biocides by means of special azole compounds” (LANXESS Deutschland GmbH, priority 2006, dated 2011) come the findings set out here.

The nature of the data set: Storage stability of IPBC in Dowanol TPM solution with cobalt dryer and azole stabilizer (HPLC). In kind it is physicochemical. The note with it: 10% by weight IPBC, 5% Octasoligen-Cobalt 8, 5% stabilizer; for Amount of IPBC (start): HPLC at the beginning; for Amount of IPBC (2 weeks, 40° C.): stored at 40° C., HPLC after two weeks. On the procedure:
A solution was prepared in Dowanol TPM (tripropylene glycol methyl ether), containing 10% by weight of iodopropargyl butylcarbamate, 5% by weight of Octasoligen-Cobalt 8 (Borchers, Langenfeld, Germany) and 5% by weight of the azole compounds of the formula (I) specified as a stabilizer in Table 1. The mixture was stored at 40° C. The amount of IPBC was determined by means of HPLC at the beginning and after two weeks.

As for `Sc1nnc[nH]1` [Example 1], the “Amount of IPBC (start)” value worked out at 10.2% and the “Amount of IPBC (2 weeks, 40° C.)” value was 9.0%.
With `Oc1nnc(S)[nH]1` [Example 2], the “Amount of IPBC (start)” value was found to be 9.9% and the “Amount of IPBC (2 weeks, 40° C.)” value was found to be 8.9%.
As to `Nc1nnc(N)[nH]1` [Example 4], the “Amount of IPBC (start)” value came to 9.7% and the “Amount of IPBC (2 weeks, 40° C.)” value was determined as 9.7%.
Regarding `Nc1nnc[nH]1` [Example 3], the “Amount of IPBC (start)” value was 9.7% and the “Amount of IPBC (2 weeks, 40° C.)” value stood at 9.5%.
